Test results taken from publication PMC9797307, “Measurement of Pharmacokinetics and Tissue Distribution of Four Compounds from Nauclea officinalis in Rat Plasma and Tissues through HPLC-MS/MS” (Journal of Analytical Methods in Chemistry, 2022).

Tests used:
[1] = Pharmacokinetic study in rat plasma after oral administration of Nauclea officinalis extracts (HPLC-MS/MS); type: in vivo, Male Sprague–Dawley (SD) rats; details: oral Nauclea officinalis extracts 2 g/kg, noncompartment model, mean ± SD
Experimental: Chromatographic analysis was performed on the LC-20ADXR System (Shimadzu, Japan). The Phenomenex Kinete EVO C18 100 Å (50 mm × 2.1 mm, 5 μm) column was used as the analytical column maintained at 40°C with (A) 0.1% formic acid aqueous solution and (B) acetonitrile as the mobile phase. […] The flow rate was 0.8 mL/min, and the injection volume was 5 μL.
Mass spectrometric detection was performed on an AB-SCIEX API 4000 mass spectrometer (AB SCIEX, Singapore) with ESI in negative ion multiple reaction monitoring (MRM) mode. The optimized instrument parameters were as follows: nebulizer gas: 50 psi, heated by N2 gas: 55 psi, ion spray voltage: −4500 V and temperature: 550°C; nebulizer, blowback gas, and collision gas were nitrogen; declustering potential (DP), collision energy (CE), and collision cell exit potential (CXP) of the four analytes and chloramphenicol (IS) are shown in Table 1.
Six male SD rats were tested in pharmacokinetics studies. […] The blood samples (approximately 0.5 mL) were collected via the venous plexus of the eye socket at 0.083, 0.25, 0.5, 1, 2, 4, 6, 8, […], 12, and 24 h under anesthesia. Next, each sample was immediately centrifuged at 4000 rpm for 10 min to acquire the plasma. The plasma was transferred to new tubes and stored at −80°C until further use. The pharmacokinetics parameters of the four compounds in rat plasma were calculated by the noncompartment model using Drug and Statistics (DAS 3.3.0) software (Beijing, China).
Pharmacokinetic parameters of four compounds were calculated by noncompartmental model using DAS 3.3.0 software.

[2] = Stability of QC samples in rat plasma and tissue homogenates under different storage conditions; type: in vitro ADME; details: in % (unit assumed)

Cmax ([1]; male, Sprague-Dawley, n = 6, read-out: C max (maximum plasma concentration)): 1010 ± 369 ng/mL
MRT last ([1]; male, Sprague-Dawley, n = 6, read-out: MRT (0 − t)): 4.76 ± 1.57 h
Vd/F ([1]; male, Sprague-Dawley, n = 6, read-out: Vz/F (apparent distribution volume)): 0.966 ± 0.359 L/kg
half-life ([1]; male, Sprague-Dawley, n = 6, read-out: t1/2 (elimination half-life) (converted)): 4.59 ± 1.65 h
AUC (0 − t) ([1]; n = 6): 5281.36 ± 440.02 μg/L∗h
AUC (0 − ∞) ([1]; n = 6): 5405.02 ± 416.99 μg/L∗h
CL (clearance rate) ([1]; n = 6): 2.5 ± 0.17 mL/min/kg
T max (time to Cmax) ([1]; n = 6): 1.66 h
Accuracy, Ambient temperature for 4 h ([2]; Brain, 5 ng/mL): 106.35 ± 11.82
Accuracy, Autosampler at 4°C for 8 h ([2]; Brain, 5 ng/mL): 109.83 ± 6.05
Accuracy, Three freeze-thraw cycles ([2]; Brain, 5 ng/mL): 98.92 ± 10.65
Accuracy, −80°C for 30 days ([2]; Brain, 5 ng/mL): 104.10 ± 10.88
Accuracy, Ambient temperature for 4 h ([2]; Brain, 8 ng/mL): 88.87 ± 10.43
Accuracy, Autosampler at 4°C for 8 h ([2]; Brain, 8 ng/mL): 90.65 ± 6.37
Accuracy, Three freeze-thraw cycles ([2]; Brain, 8 ng/mL): 89.95 ± 9.23
Accuracy, −80°C for 30 days ([2]; Brain, 8 ng/mL): 88.82 ± 10.57
Accuracy, Ambient temperature for 4 h ([2]; Brain, 140 ng/mL): 88.33 ± 6.74
Accuracy, Autosampler at 4°C for 8 h ([2]; Brain, 140 ng/mL): 87.92 ± 8.15
Accuracy, Three freeze-thraw cycles ([2]; Brain, 140 ng/mL): 87.20 ± 4.98
Accuracy, −80°C for 30 days ([2]; Brain, 140 ng/mL): 87.93 ± 5.81
Accuracy, Ambient temperature for 4 h ([2]; Brain, 2400 ng/mL): 99.43 ± 6.38
Accuracy, Autosampler at 4°C for 8 h ([2]; Brain, 2400 ng/mL): 112.67 ± 6.62
Accuracy, Three freeze-thraw cycles ([2]; Brain, 2400 ng/mL): 109.67 ± 6.44
Accuracy, −80°C for 30 days ([2]; Brain, 2400 ng/mL): 109.00 ± 5.22
Accuracy, Ambient temperature for 4 h ([2]; Heart, 5 ng/mL): 111.97 ± 11.63
Accuracy, Autosampler at 4°C for 8 h ([2]; Heart, 5 ng/mL): 100.78 ± 9.63
Accuracy, Three freeze-thraw cycles ([2]; Heart, 5 ng/mL): 107.98 ± 9.45
Accuracy, −80°C for 30 days ([2]; Heart, 5 ng/mL): 107.42 ± 10.24
Accuracy, Ambient temperature for 4 h ([2]; Heart, 8 ng/mL): 110.50 ± 4.42
Accuracy, Autosampler at 4°C for 8 h ([2]; Heart, 8 ng/mL): 107.25 ± 9.25
Accuracy, Three freeze-thraw cycles ([2]; Heart, 8 ng/mL): 109.08 ± 8.25
Accuracy, −80°C for 30 days ([2]; Heart, 8 ng/mL): 110.87 ± 9.04
Accuracy, Ambient temperature for 4 h ([2]; Heart, 140 ng/mL): 102.78 ± 6.89
Accuracy, Autosampler at 4°C for 8 h ([2]; Heart, 140 ng/mL): 104.88 ± 3.80
Accuracy, Three freeze-thraw cycles ([2]; Heart, 140 ng/mL): 100.40 ± 9.13
Accuracy, −80°C for 30 days ([2]; Heart, 140 ng/mL): 98.28 ± 5.70
Accuracy, Ambient temperature for 4 h ([2]; Heart, 2400 ng/mL): 112.33 ± 10.41
Accuracy, Autosampler at 4°C for 8 h ([2]; Heart, 2400 ng/mL): 111.50 ± 5.68
Accuracy, Three freeze-thraw cycles ([2]; Heart, 2400 ng/mL): 112.33 ± 5.72
Accuracy, −80°C for 30 days ([2]; Heart, 2400 ng/mL): 110.50 ± 4.81
Accuracy, Ambient temperature for 4 h ([2]; Kidney, 5 ng/mL): 109.33 ± 7.55
Accuracy, Autosampler at 4°C for 8 h ([2]; Kidney, 5 ng/mL): 106.08 ± 8.96
Accuracy, Three freeze-thraw cycles ([2]; Kidney, 5 ng/mL): 98.92 ± 9.91
Accuracy, −80°C for 30 days ([2]; Kidney, 5 ng/mL): 97.18 ± 10.46
Accuracy, Ambient temperature for 4 h ([2]; Kidney, 8 ng/mL): 99.10 ± 4.24
Accuracy, Autosampler at 4°C for 8 h ([2]; Kidney, 8 ng/mL): 97.38 ± 7.31
Accuracy, Three freeze-thraw cycles ([2]; Kidney, 8 ng/mL): 91.10 ± 9.20
Accuracy, −80°C for 30 days ([2]; Kidney, 8 ng/mL): 94.77 ± 7.62
Accuracy, Ambient temperature for 4 h ([2]; Kidney, 140 ng/mL): 96.08 ± 7.36
Accuracy, Autosampler at 4°C for 8 h ([2]; Kidney, 140 ng/mL): 95.43 ± 7.99
Accuracy, Three freeze-thraw cycles ([2]; Kidney, 140 ng/mL): 101.10 ± 4.98
Accuracy, −80°C for 30 days ([2]; Kidney, 140 ng/mL): 100.25 ± 8.25
Accuracy, Ambient temperature for 4 h ([2]; Kidney, 2400 ng/mL): 108.00 ± 5.62
Accuracy, Autosampler at 4°C for 8 h ([2]; Kidney, 2400 ng/mL): 103.87 ± 4.68
Accuracy, Three freeze-thraw cycles ([2]; Kidney, 2400 ng/mL): 104.57 ± 6.09
Accuracy, −80°C for 30 days ([2]; Kidney, 2400 ng/mL): 102.30 ± 5.90
Accuracy, Ambient temperature for 4 h ([2]; Liver, 5 ng/mL): 101.78 ± 11.83
Accuracy, Autosampler at 4°C for 8 h ([2]; Liver, 5 ng/mL): 107.70 ± 5.36
Accuracy, Three freeze-thraw cycles ([2]; Liver, 5 ng/mL): 98.32 ± 6.66
Accuracy, −80°C for 30 days ([2]; Liver, 5 ng/mL): 98.38 ± 12.07
Accuracy, Ambient temperature for 4 h ([2]; Liver, 8 ng/mL): 87.60 ± 5.90
Accuracy, Autosampler at 4°C for 8 h ([2]; Liver, 8 ng/mL): 86.47 ± 4.52
Accuracy, Three freeze-thraw cycles ([2]; Liver, 8 ng/mL): 90.60 ± 4.91
Accuracy, −80°C for 30 days ([2]; Liver, 8 ng/mL): 86.00 ± 8.60
Accuracy, Ambient temperature for 4 h ([2]; Liver, 140 ng/mL): 88.57 ± 2.44
Accuracy, Autosampler at 4°C for 8 h ([2]; Liver, 140 ng/mL): 95.00 ± 4.15
Accuracy, Three freeze-thraw cycles ([2]; Liver, 140 ng/mL): 96.28 ± 4.36
Accuracy, −80°C for 30 days ([2]; Liver, 140 ng/mL): 97.32 ± 7.17
Accuracy, Ambient temperature for 4 h ([2]; Liver, 2400 ng/mL): 98.93 ± 3.81
Accuracy, Autosampler at 4°C for 8 h ([2]; Liver, 2400 ng/mL): 91.37 ± 2.51
Accuracy, Three freeze-thraw cycles ([2]; Liver, 2400 ng/mL): 89.35 ± 3.70
Accuracy, −80°C for 30 days ([2]; Liver, 2400 ng/mL): 89.97 ± 7.32
Accuracy, Ambient temperature for 4 h ([2]; Lung, 5 ng/mL): 109.50 ± 11.47
Accuracy, Autosampler at 4°C for 8 h ([2]; Lung, 5 ng/mL): 100.40 ± 10.26
Accuracy, Three freeze-thraw cycles ([2]; Lung, 5 ng/mL): 101.05 ± 5.33
Compound: C/C=C1/COC(=O)[C@H]2C(=O)N3CCc4c([nH]c5ccccc45)[C@@H]3C[C@@H]12 [Naucleactonin C]
